Test results reported in article PMC9763021, “Comprehensive Assessment of Biomolecular Interactions of Morpholine-Based Mixed Ligand Cu(II) and Zn(II) Complexes of 2,2′-Bipyridine as Potential Anticancer and SARS-CoV-2 Agents: A Synergistic Experimental and Structure-Based Virtual Screening” (Bioinorganic Chemistry and Applications, 2022).

What was measured:
[1] = DPPH radical scavenging assay; type: biochemical; settings: for % Inhibition DPPH: 517 nm
Procedure: All samples were evaluated for their scavenging ability with the help of UV-visible spectrophotometer at different concentrations of 40, 80, 120, 160, 200, and 240 μM [6, 28]. While performing the antioxidant properties for the DPPH, hydroxyl, superoxide, and nitric oxide radical scavenging, the absorbance at 517, 230, 590, and 546 nm, respectively, was closely observed. In addition, the observed IC50 values of all samples were compared with ascorbic acid.
The colour of an aqueous or methanol solution changes from deep purple to pale yellow when DPPH, a stable chromogen free radical, combines with an antioxidant molecule, which means that DPPH quickly absorbs the hydrogen or electrons from the donor groups. In this case, for the baseline correction, a blank DPPH solution in the absence of a test compound was employed, and 517 nm (ε = 8320 M^−1·cm^−1) was attained to have a significant absorption maximum. […] The DPPH radicals are reduced by an antioxidant compound (AH), in which the reduction of electronic absorbance for each compound was vigilantly noted at 517 nm. The capacity to block radicals improves as the sample concentration increases. The assessed percentage of maximum inhibition for all substances was found at 240 μM in the subsequent order: (ascorbic acid) (85.65) > (1a) 68.64 > (2a) 59.55 > (HL) 52.45. […] Moreover, the % of scavenging or maximum inhibition for all substances is estimated with the aid of equation (44) (Table S14).(43) Scavanging%=A0−AS/A0×100

BSA = BSA (Bos taurus, UniProt P02769); experiment: BSA fluorescence quenching (emission titration); type: binding, bovine; settings: values in brackets; for KSV (BSA), SV method I: 350 nm; for P (BSA), ratio of fluorescence quantum efficiency: F/F0 vs 1/[BSA]; for Kq (BSA), SV method I: Kq=KSV/τ0; for ∆Gb° (BSA), SV method II: –RT lnKass
Procedure: The experiment was performed in the 200 to 800 nm region. This is supporting evidence for the complexes' manner of deoxyribonucleic acid binding. When DNA (200 μM) was present or absent, we carefully monitored the intensity variations between 610 nm and 510 nm during the initial emission and excitation of EB [6, 28, 37]. Similarly, emission titrations for BSA interaction with different concentrations between 2.5 μM and 25 μM for all substances were conducted in a Tris-HCl buffer solution (pH: 7.4) between the regions of 300 nm and 400 nm.
K SV is denoted as Stern–Volmer binding constant; Kass is represented as association binding constant; Kapp is represented as apparent binding constant, Kapp=KEB[EB]/[compound]=500/[compound], KEB = 10^7 M^−1 at the concentration of 50 μM EB; Gibb's free energy change ΔGb°=–RT lnKass; Kq is represented as bimolecular quenching rate constant/Stern–Volmer dynamic quenching rate constant (Kq=KSV/τ0), average life time of the biomolecular quenching in the absence of a quencher (τ0) = 10^−8 S; Gibb's free energy change ΔGb°=–RT lnKass (where R = […], T = 298 K); KLB is represented as Lineweaver–Burk (LWB) binding constant; KSA is represented as Scatchard association binding constant; Kapp is denoted as apparent binding constant; n is the number of binding sites; P is a ratio of fluorescence quantum efficiency of DNA bound and free complex (P=ɸb/ɸf), which is obtained as intercept from plot F/F0 vs. 1/[DNA], Error limit is ± 2.5% (P < 0.025).(12) Fcorr=Fobs×e^Aex×dex+Aem×dem/2=Fobs×e^Aex+Aem/2, where Fcorr and Fobs are represented as the IFE-corrected fluorescence and observed (uncorrected) emission intensities, respectively. dex and dem are denoted as the cuvette path lengths in the excitation and emission directions, respectively. Aex and Aem are represented as the change in absorbance at the excitation and fluorescence wavelengths, respectively.(13) F0 /F=1+KSVQ=1+Kq τ0, where [Q] is represented as the sample concentration, the emission intensities F0 and F of DNA/BSA in the absence and presence of the quencher (sample), respectively.(14) F0 /F−1=F0−F/F=KSVQlogF0−F/F=logKass+n logQ, (15) KEBEB=Kappcompound, (16) 1/F0−F=1/F0 KLBQ+1/F0 , (17) γ/CF =KSCn−γ, where γ = [(F0 − F)/F0], and CF is denoted as the concentration of sample alone.
Additionally, the intensity of bovine serum albumin was monitored at 350 nm (λex = 278 nm) during fluorescence titration. When increasing the sample concentrations, the BSA intensity diminishes dramatically owing to static quenching in the ground state. It is noted that the fluorophores of BSA are not clearly exposed to a shift in polarity. […] Additionally, the Stern–Volmer equations (12)-(13) were employed to analyze the data (Figure S27 and Table 4). […] They are also much exceeded compared to the collision quenching constant value (2.0 × 10^10 mol^−1·s^−1). Therefore, it is assumed that the static quenching process was brought on by adduct construction between the compounds and bovine serum albumin rather than a dynamic collision. However, fluorescence spectroscopy is generally plagued by the inner filter effect (IFE), which disturbs the spectral analysis in particular. The energizing ray is attenuated due to the highly concentrated solution sample. As a result, strong fluorescence is only seen on surfaces facing the excitation beam. The fluorescence intensity is reduced as a result of an inner filter effect generated by some chemicals' absorption of the excitation or emission wavelength in the UV province. The observed values of the absorption wavelength of ligand (HL) and mixed ligand complexes (1a-2a) in the range of 335–337 nm, the bovine serum albumin excitation wavelength of 278 nm, and emission wavelength of 350 nm were used to assess the effect of IFE in this approach. Equation (12) is employed to solve IFE in this instance as well (Table 4). […]

## [Cu+2].[O-]c1ccccc1N=Cc1ccc(N2CCOCC2)cc1.[O-]c1ccccc1N=Cc1ccc(N2CCOCC2)cc1.c1ccc(-c2ccccn2)nc1 [(1a), [Cu(L)2(bpy)]]
[1]
  IC50: 160 µM
[1]; 40 µM
  % Inhibition DPPH: 17.53%
[1]; 80 µM
  % Inhibition DPPH: 30.62%
[1]; 120 µM
  % Inhibition DPPH: 35.74%
[1]; 160 µM
  % Inhibition DPPH: 51.72%
[1]; 200 µM
  % Inhibition DPPH: 57.95%
[1]; 240 µM
  % Inhibition DPPH: 68.64%
BSA
  Kass (BSA), SV method II: 87340 M⁻¹
  n (BSA), SV method II: 1.059
  KSV (BSA), SV method I: 86910 M⁻¹
  P (BSA), ratio of fluorescence quantum efficiency: 0.252
  Kq (BSA), SV method I: 8.691e+12 M⁻¹ s⁻¹
  ∆Gb° (BSA), SV method II: −28.2 kJM^−1

## [O-]c1ccccc1N=Cc1ccc(N2CCOCC2)cc1.[O-]c1ccccc1N=Cc1ccc(N2CCOCC2)cc1.[Zn+2].c1ccc(-c2ccccn2)nc1 [(2a), [Zn(L)2(bpy)]]
[1]; 40 µM
  % Inhibition DPPH: 12.75%
[1]; 80 µM
  % Inhibition DPPH: 24.73%
[1]; 120 µM
  % Inhibition DPPH: 30.02%
[1]; 160 µM
  % Inhibition DPPH: 39.68%
[1]; 200 µM
  % Inhibition DPPH: 48.79%
[1]; 240 µM
  % Inhibition DPPH: 59.55%
BSA
  Kass (BSA), SV method II: 52910 M⁻¹
  n (BSA), SV method II: 1.041
  KSV (BSA), SV method I: 48050 M⁻¹
  P (BSA), ratio of fluorescence quantum efficiency: 0.348
  Kq (BSA), SV method I: 4.805e+12 M⁻¹ s⁻¹
  ∆Gb° (BSA), SV method II: −26.9 kJM^−1

## Oc1ccccc1N=Cc1ccc(N2CCOCC2)cc1 [(HL), 2-(4-morpholinobenzylideneamino)phenol]
[1]; 40 µM
  % Inhibition DPPH: 09.45%
[1]; 80 µM
  % Inhibition DPPH: 15.21%
[1]; 120 µM
  % Inhibition DPPH: 26.36%
[1]; 160 µM
  % Inhibition DPPH: 34.56%
[1]; 200 µM
  % Inhibition DPPH: 39.41%
[1]; 240 µM
  % Inhibition DPPH: 52.45%
BSA
  Kass (BSA), SV method II: 10620 M⁻¹
  n (BSA), SV method II: 0.926
  KSV (BSA), SV method I: 26390 M⁻¹
  P (BSA), ratio of fluorescence quantum efficiency: 0.464
  Kq (BSA), SV method I: 2.639e+12 M⁻¹ s⁻¹
  ∆Gb° (BSA), SV method II: −23.0 kJM^−1
